Experimental data taken from PMC3400893 (Clinical Pharmacology and Therapeutics, 2012).

Legend:
patients with T2DM [1] = assay: Single-dose three-way crossover study: pharmacodynamics; assay type: in vivo, human
patients with T2DM [2] = assay: 28-day study: safety, adverse events and clinical laboratory values
healthy volunteers = assay: Phase I trial in healthy volunteers; assay type: in vivo, human; details: 300-mg dose, phase I trial (data not shown)
patients with T2DM [3] = assay: 28-day randomized placebo-controlled study: efficacy/pharmacodynamics; assay type: in vivo, human; details: for Decrease in FPG from baseline after correcting for changes in placebo values: after 28 days; for OGTT glucose excursions above baseline FPG lower than placebo: corrected for FPG at hour 0
[4] = 28-day study: plasma LX4211 pharmacokinetics; assay type: in vivo, human; details: for Tmax: both, human, plasma, oral
humans = details: taken orally at high doses; ref [46]; cited from earlier work
[5] = ref [47],[48]; cited from earlier work
[6] = single 300-mg dose of any of the LX4211 formulations
[7] = 150 or 300 mg once daily for 28 days

CCOc1ccc(Cc2cc([C@@H]3O[C@H](SC)[C@@H](O)[C@H](O)[C@H]3O)ccc2Cl)cc1 [LX4211, (2S,3R,4R,5S,6R)-2-(4-chloro-3-(4-ethoxybenzyl)phenyl)-6-(methylthio)tetrahydro-2H-pyran-3,4,5-triol]
Glucagon values vs day −1 (patients with T2DM [1]; single 300-mg dose): not altered
Plasma insulin between 0 and 13 h vs day −1 (patients with T2DM [1]; [6]): significantly decreased
Total GLP-1 between 0 and 13 h vs day −1 (patients with T2DM [1]; [6]): significantly increased
Total PYY between 0 and 13 h vs day −1 (patients with T2DM [1]; [6]): significantly increased
UGE over the next 24 h vs pretreatment day (day −1) (patients with T2DM [1]; [6]): significantly increased
Renal toxicity (laboratory data) (patients with T2DM [2]; [7]): no evidence of renal toxicity
Treatment-emergent urinary tract infections, genital infections, CV events, episodes of hypoglycemia (patients with T2DM [2]; [7]): no treatment-emergent urinary tract infections, genital infections, CV events, or episodes of hypoglycemia
24-h urine volume relative to placebo (patients with T2DM [2]; LX4211-treated groups, day 1): slight but nonsignificant increase
Urinary calcium excretion (patients with T2DM [2]; LX4211-treated groups, days 1, 14, 28): at no time during the study was urinary calcium excretion increased
Safety and tolerability (patients with T2DM [2]; at the doses and schedule employed (150 or 300 mg once daily, 28 days)): safe and well tolerated
Urinary sodium and chloride excretion relative to placebo (patients with T2DM [2]; day 1, statistically significant in the 300 mg group): modest increases
Frequency of gastrointestinal side effects relative to placebo (patients with T2DM [2]; even after challenge with 75 g of glucose during OGTTs): did not observe an increase
Tolerability and glycosuric effect (healthy volunteers): well tolerated and produced a maximal glycosuric effect
FPG reduction from baseline (patients with T2DM [3]; 150 mg once daily, day 7, placebo 9 mg/dl increase): 30 mg/dL
Decrease in FPG from baseline after correcting for changes in placebo values (patients with T2DM [3]; 150 mg): 39 mg/dL
Net 24-h UGE increase relative to placebo (patients with T2DM [3]; 150 mg, day 1): 44 g/day
OGTT glucose AUC (hour 0 to 4) lower than placebo (patients with T2DM [3]; 150 mg, day 2): 30%
OGTT glucose AUC (hour 0 to 4) lower than placebo (patients with T2DM [3]; 150 mg, day 13): 35%
OGTT glucose AUC (hour 0 to 4) lower than placebo (patients with T2DM [3]; 150 mg, day 27): 38%
OGTT glucose excursions above baseline FPG lower than placebo (patients with T2DM [3]; 150 mg, day 27): 46%
Decrease from baseline HbA1c after correcting for changes in placebo values (patients with T2DM [3]; 150 mg, day 28): 0.66
Net 24-h UGE increase relative to placebo (patients with T2DM [3]; 150 mg, day 28): 37 g/day
Decrease in FPG from baseline after correcting for changes in placebo values (patients with T2DM [3]; 300 mg): 55 mg/dL
Net 24-h UGE increase relative to placebo (patients with T2DM [3]; 300 mg, day 1): 65 g/day
OGTT glucose AUC (hour 0 to 4) lower than placebo (patients with T2DM [3]; 300 mg, day 2): 30%
OGTT glucose AUC (hour 0 to 4) lower than placebo (patients with T2DM [3]; 300 mg, day 13): 36%
OGTT glucose AUC (hour 0 to 4) lower than placebo (patients with T2DM [3]; 300 mg, day 27): 39%
OGTT glucose excursions above baseline FPG lower than placebo (patients with T2DM [3]; 300 mg, day 27): 46%
Decrease from baseline HbA1c after correcting for changes in placebo values (patients with T2DM [3]; 300 mg, day 28): 0.76
Net 24-h UGE increase relative to placebo (patients with T2DM [3]; 300 mg, day 28): 48 g/day
Amount of glucose excreted in the first 8 h vs the period spanning 8–24 h (patients with T2DM [3]; LX4211-treated groups): comparable
Total GLP-1 levels after meals (patients with T2DM [3]; LX4211-treated groups, day 1 (similar on day 28), post hoc analysis): nonsignificant increase
Mean serum triglyceride (TG) level (fell to within the normal range) (patients with T2DM [3]; both LX4211-treated groups (150 and 300 mg), by day 14): < 151 mg/dL
Mean homeostasis model assessment of insulin resistance vs placebo (patients with T2DM [3]; both LX4211 groups, day 27): significantly lower
Serum TG vs placebo (patients with T2DM [3]; both doses, post hoc analysis): statistically significant TG reductions
24-h UGE vs placebo (patients with T2DM [3]; both treatment groups, days 1, 14 and 28): significantly increased
2-h postprandial glucose (PPG) levels vs placebo (patients with T2DM [3]; each treatment group, days 1, 7, 21 and 28): significantly lowered
Patients with HbA1c levels ≤7.0% (patients with T2DM [3]; patients who received LX4211 (150 or 300 mg), day 28, placebo 18%): 50%
Time after dosing at which Cmax appeared ([4]; 150 and 300 mg, oral liquid): 0.5 to 2.0 h
Dose proportionality of increases in Cmax and AUC ([4]; 150 vs 300 mg): slightly more than dose-proportional
Steady state reached ([4]; based on Cmax, AUC0–tau, Cmin, possibly even by day 7): ≤ 14 days
Tmax ([4]; Median tmax, days 14 and 28, the two dose groups): 1 to 1.5 h
Tmax ([4]; tmax, individual values, the two dose groups): 0.48 to 2.02 h
Time at which plasma concentrations were detected ([4]; each LX4211 dose, oral liquid): ≤ 15 min

O=C(CCc1ccc(O)cc1)c1c(O)cc(O)cc1O[C@@H]1O[C@H](CO)[C@@H](O)[C@H](O)[C@H]1O [Phlorizin, phlorizin]
Nausea (humans): induces nausea
Conversion in the small intestine [5]: rapidly converted to phloretin
